Laboratory results from patent US20070048372A1, “Method for treating non-inflammatory osteoarthritic pain” (SRZ Properties, Inc., priority 2005, published 2007).

Legend:
[1] = system: monosodium iodoacetate-induced tactile allodynia; experiment: Monosodium iodoacetate-induced tactile allodynia (von Frey filaments); format: in vivo, rat (Wistar); conditions: 60 minutes before test
[2] = system: monosodium iodoacetate-induced mechanical hyperalgesia; experiment: Monosodium iodoacetate-induced mechanical hyperalgesia (Randall-Selitto paw pressure); format: in vivo, rat (Wistar); conditions: for paw pressure withdrawal threshold compared to iodoacetate/vehicle treated animals (mechanical hyperalgesia): day 3; for mechanical hyperalgesia (paw pressure withdrawal threshold): day 7
[3] = system: rat formalin paw test (late phase); experiment: Rat formalin paw test (late phase): number of flinches and licking time; format: in vivo, rat (Rj: Wistar (Han))
Protocol: Rats were given an intraplantar injection of 5% formalin (50 μl) into the posterior left paw. This treatment induces a recognizable flinching and licking response of the affected paw in control animals. The number of flinches was counted for 15 minutes, beginning 20 minutes after injection of formalin. The time spent licking the affected paw was also recorded.
Male Rj: Wistar (Han) rats, 10 per group, weighing 100-130 g at the beginning of the experiments were studied per group. The test was performed blind.
Lacosamide (20 mg/kg), gabapentin (50 and 100 mg/kg), combinations of lacosamide (20 mg/kg) with gabapentin (50 and 100 mg/kg), and vehicle were administered i.p. 10 minutes before injection of formalin.
Lacosamide (10 and 20 mg/kg), morphine (2 and 4 mg/kg), combinations of lacosamide (10 and 20 mg/kg) with morphine (2 and 4 mg/kg), and vehicle were administered i.p. 10 minutes before injection of formalin.
Lacosamide (10 mg/kg), duloxetine (8 mg/kg), a combination of lacosamide (10 mg/kg) with duloxetine (8 mg/kg), and vehicle were administered i.p. 10 minutes before injection of formalin.
Lacosamide (10 and 20 mg/kg), memantine (4 and 8 mg/kg), combinations of lacosamide (10 and 20 mg/kg) with memantine (4 and 8 mg/kg), and vehicle were administered i.p. 10 minutes before injection of formalin.
Lacosamide (10 and 20 mg/kg), naproxen (8 and 16 mg/kg), combinations of lacosamide (10 and 20 mg/kg) with […] (8 and 16 mg/kg), and vehicle were administered i.p. 10 minutes before injection of formalin. Morphine (8 mg/kg) was included as a comparative treatment.

[4] = Example 4, 2 and 4 mg/kg i.p. alone, did not reach statistical significance

Compound: CN1CC[C@]23c4c5ccc(O)c4O[C@H]2[C@@H](O)C=C[C@H]3[C@H]1C5 [Morphine]
- tactile allodynia of iodoacetate-treated rats (von Frey) ([1]; day 3, 3 mg/kg s.c.): improved tactile allodynia
- tactile allodynia of iodoacetate-treated rats (von Frey) ([1]; day 7, 3 mg/kg s.c.): improved tactile allodynia
- tactile allodynia of iodoacetate-treated rats (von Frey) ([1]; day 14, 3 mg/kg s.c.): not on day 14
- paw pressure withdrawal threshold compared to iodoacetate/vehicle treated animals (mechanical hyperalgesia) ([2]; 3 mg/kg s.c.): increase in paw pressure withdrawal threshold
- mechanical hyperalgesia (paw pressure withdrawal threshold) ([2]; 3 mg/kg s.c.): reduced mechanical hyperalgesia
- Licking time % change (a) compared with vehicle control ([3]; Example 4, 2 mg/kg i.p. alone): −1% (a)
- Licking time (seconds) mean ± SEM ([3]; Example 4, 2 mg/kg i.p. alone): 289.3 ± 30.7 NS (a) seconds
- No. of flinches % change (a) compared with vehicle control ([3]; Example 4, 2 mg/kg i.p. alone): −7% (a)
- No. of flinches mean ± SEM ([3]; Example 4, 2 mg/kg i.p. alone): 139.5 ± 25.3 NS (a)
- Licking time % change (a) compared with vehicle control ([3]; Example 4, 4 mg/kg i.p. alone): −20% (a)
- Licking time (seconds) mean ± SEM ([3]; Example 4, 4 mg/kg i.p. alone): 234.9 ± 37.3 NS (a) seconds
- No. of flinches % change (a) compared with vehicle control ([3]; Example 4, 4 mg/kg i.p. alone): −37% (a)
- No. of flinches mean ± SEM ([3]; Example 4, 4 mg/kg i.p. alone): 94.3 ± 21.1 NS (a)
- effect on the number of flinches as compared with vehicle controls [3, 4]: dose-dependently decreased
- effect on the time spent licking as compared with vehicle controls [3, 4]: dose-dependently decreased
- Licking time % change (a) compared with vehicle control ([3]; Example 7, 8 mg/kg i.p. alone): −100% (a)
- Licking time (seconds) mean ± SEM ([3]; Example 7, 8 mg/kg i.p. alone): 0.0 ± 0.0 (a) seconds
- No. of flinches % change (a) compared with vehicle control ([3]; Example 7, 8 mg/kg i.p. alone): −100% (a)
- No. of flinches mean ± SEM ([3]; Example 7, 8 mg/kg i.p. alone): 0.2 ± 0.1 (a)
- effect on flinching and the time spent licking as compared with vehicle controls ([3]; Example 7, 8 mg/kg i.p. alone): eliminated flinching and the time spent licking

Compound: CNCC[C@H](Oc1cccc2ccccc12)c1cccs1 [Duloxetine]
- Licking time % change (a) compared with vehicle control ([3]; Example 5, 8 mg/kg i.p. alone): −26% (a)
- Licking time (seconds) mean ± SEM ([3]; Example 5, 8 mg/kg i.p. alone): 195.5 ± 45.0 NS (a) seconds
- No. of flinches % change (a) compared with vehicle control ([3]; Example 5, 8 mg/kg i.p. alone): −1% (a)
- No. of flinches mean ± SEM ([3]; Example 5, 8 mg/kg i.p. alone): 149.6 ± 27.3 NS (a)
- effects on the number of flinches and the time spent licking ([3]; Example 5, 8 mg/kg i.p. alone): had no clear effects

Compound: O=C(O)Cc1ccccc1Nc1c(Cl)cccc1Cl [diclofenac]
- tactile allodynia of iodoacetate-treated rats (von Frey) ([1]; day 3, 30 mg/kg s.c.): had no effect
- tactile allodynia of iodoacetate-treated rats (von Frey) ([1]; day 7, 30 mg/kg s.c.): had no effect
- tactile allodynia of iodoacetate-treated rats (von Frey) ([1]; day 14, 30 mg/kg s.c.): had no effect
- paw pressure withdrawal threshold compared to iodoacetate/vehicle treated animals (mechanical hyperalgesia) ([2]; 30 mg/kg s.c.): increase in paw pressure withdrawal threshold
- mechanical hyperalgesia (paw pressure withdrawal threshold) ([2]; 30 mg/kg s.c.): reduced mechanical hyperalgesia

Compound: COc1ccc2cc([C@H](C)C(=O)O)ccc2c1 [Naproxen]
- Licking time % change (a) compared with vehicle control ([3]; Example 7, 8 mg/kg i.p. alone): +16% (a)
- Licking time (seconds) mean ± SEM ([3]; Example 7, 8 mg/kg i.p. alone): 222.1 ± 21.1 NS (a) seconds
- No. of flinches % change (a) compared with vehicle control ([3]; Example 7, 8 mg/kg i.p. alone): +30% (a)
- No. of flinches mean ± SEM ([3]; Example 7, 8 mg/kg i.p. alone): 148.0 ± 35.5 NS (a)
- Licking time % change (a) compared with vehicle control ([3]; Example 7, 16 mg/kg i.p. alone): −1% (a)
- Licking time (seconds) mean ± SEM ([3]; Example 7, 16 mg/kg i.p. alone): 190.1 ± 25.4 NS (a) seconds
- No. of flinches % change (a) compared with vehicle control ([3]; Example 7, 16 mg/kg i.p. alone): +2% (a)
- No. of flinches mean ± SEM ([3]; Example 7, 16 mg/kg i.p. alone): 116.6 ± 20.7 NS (a)
- effect on the number of flinches or the time spent licking as compared with vehicle controls ([3]; Example 7, 8 and 16 mg/kg i.p. alone): did not clearly affect
